According to patent US9920030B2 (priority 2006, dated 2018):
Like-named read-outs stand apart in the source and are kept apart here.

Columns and labels:
Format in all cases: in vivo
[1] = tested on: Plasmopara vilicola (the causal agent of grape downy mildew); assay: Test A: grape downy mildew, test suspension sprayed on grape seedlings after inoculation, visual disease rating; settings: for pest or weed control at 40 ppm / pest or weed control at 10 µg/mL: Plasmopara, 144 h, read-out: Percent Disease Control, Test A
Source text: General protocol for preparing test suspensions for Test A-C: The test compounds were first dissolved in acetone in an amount equal to 3% of the final volume and then suspended at the desired concentration (in ppm) in acetone and purified water (50/50 mix by volume) containing 250 ppm of the surfactant Trem® 014 (polyhydric alcohol esters). The resulting test suspensions were then used in Tests A-C. Spraying a 200 ppm test suspension to the point of run-off on the test plants was equivalent to a rate of 500 g/ha.
Grape seedlings were inoculated with a spore suspension of Plasmopara vilicola (the causal agent of grape downy mildew) and incubated in a saturated atmosphere at 20° C. for 24 h. After a short drying period, the test suspension was sprayed to the point of run-off on the grape seedlings, which were then moved to a growth chamber at 20° C. for 5 days, after which time the grape seedling were placed back into a saturated atmosphere at 20° C. for 24 h. Upon removal, visual disease ratings were made.
Results for Tests A-C are given in Table A. In the table, a rating of 100 indicates 100% disease control and a rating of 0 indicates no disease control (relative to the controls). A dash (-) indicates no test results.

[2] = tested on: Phytophthora infestans (the causal agent of tomato late blight); assay: whole plant or invertebrate; settings: for pest or weed control at 40 ppm / pest or weed control at 10 µg/mL: Phytophthora infestans, 144 h, read-out: Percent Disease Control, Test B
[3] = tested on: Phytophthora infestans (the causal agent of tomato late blight); assay: whole plant or invertebrate; settings: for pest or weed control at 40 ppm / pest or weed control at 10 µg/mL: Phytophthora infestans, 96 h, read-out: Percent Disease Control, Test C
[4] = compounds without asterisk (application rate not given), 100 = 100% disease control, 0 = no control relative to the controls

Compound: 1-[4-[4-(4,5-dihydro-5-(2-pyridinyl)-3-isoxazolyl)-2-thiazolyl]-1-piperidinyl]-2-[5-methyl-3-(trifluoromethyl)-1H-pyrazol-1-yl]ethanone [Compound 98]
- Percent Disease Control, Test A [1, 4]: 99%
- Percent Disease Control, Test B [2, 4]: 100%
- Percent Disease Control, Test C [3, 4]: 99%

Compound: 1-[4-[4-(4,5-dihydro-5-phenyl-3-isoxazolyl)-2-thiazolyl]-3,6-dihydro-1(2H)-pyridinyl]-2-[5-methyl-3-(trifluoromethyl)-1H-pyrazol-1 yl]ethanone [Compound 217]
- Percent Disease Control, Test A [1, 4]: 0%
- Percent Disease Control, Test B [2, 4]: 95%
- Percent Disease Control, Test C [3, 4]: 86%

Compound: 1-[4-[4-[5-(2-chlorophenyl)-4,5-dihydro-3-isoxazolyl]-2-thiazolyl]-1-piperidinyl]-2-[5-methyl-3-(trifluoromethyl)-1H-pyrazol-1-yl]ethanone [Compound 8]
- Percent Disease Control, Test A [1, 4]: 96%
- Percent Disease Control, Test B [2, 4]: 100%
- Percent Disease Control, Test C [3, 4]: 99%

Compound: 1-[4-[4-[(5R)-4,5-dihydro-5-phenyl-3-isoxazolyl]-2-thiazolyl]-1-piperidinyl]-2-[5-methyl-3-(trifluoromethyl)-1H-pyrazol-1-yl]ethanone [Compound 3]
- Percent Disease Control, Test A [1, 4]: 52%
- Percent Disease Control, Test B [2, 4]: 47%
- Percent Disease Control, Test C [3, 4]: 0%

Compound: 2-[5-chloro-3-(trifluoromethyl)-1H-pyrazol-1-yl]-1-[4-[4-(4,5-dihydro-5-phenyl-3-isoxazolyl)-2-thiazolyl]-1-piperidinyl]ethanone [Compound 107]
- Percent Disease Control, Test A [1, 4]: 97%
- Percent Disease Control, Test B [2, 4]: 100%
- Percent Disease Control, Test C [3, 4]: 99%

Compound: Cc1cc(C(F)(F)F)nn1CC(=O)N1CCC(c2nc(C3=NOC4(CCCCC4c4ccccc4)C3)cs2)CC1 (mixture of isomers) [Compound 170]
- Percent Disease Control, Test A ([1]; * tested at 40 ppm): 99%
- Percent Disease Control, Test B ([2]; * tested at 40 ppm): 100%
- Percent Disease Control, Test C ([3]; * tested at 40 ppm): 93%

Compound: Cc1cc(C(F)(F)F)nn1CC(=O)N1CCC(c2nc(C3=NOC4(CCCC(c5ccccc5)C4)C3)cs2)CC1 (mixture of isomers) [Compound 171]
- Percent Disease Control, Test A ([1]; * tested at 40 ppm): 99%
- Percent Disease Control, Test B ([2]; * tested at 40 ppm): 100%
- Percent Disease Control, Test C ([3]; * tested at 40 ppm): 98%

Compound: Cc1cc(C(F)(F)F)nn1CC(=O)N1CCC(c2nc(C3=NOC(c4cccc(Cl)c4)C3)cs2)CC1 (racemic) [Compound 17]
- Percent Disease Control, Test A ([1]; * tested at 40 ppm): 100%
- Percent Disease Control, Test B ([2]; * tested at 40 ppm): 99%
- Percent Disease Control, Test C ([3]; * tested at 40 ppm): 99%

Compound: Cc1cc(C(F)(F)F)nn1CC(=O)N1CCC(c2nc(C3=NOC(Cc4ccccc4)C3)cs2)CC1 (racemic) [Compound 24]
- Percent Disease Control, Test A [1, 4]: 99%
- Percent Disease Control, Test B [2, 4]: 100%
- Percent Disease Control, Test C [3, 4]: 93%

Compound: Cc1cc(C(F)(F)F)nn1CC(=O)N1CCC(c2nc(C3=NOC(CCC(C)C)C3)cs2)CC1 (racemic) [Compound 27]
- Percent Disease Control, Test A [1, 4]: 100%
- Percent Disease Control, Test B [2, 4]: 100%
- Percent Disease Control, Test C [3, 4]: 98%

Compound: Cc1cc(C(F)(F)F)nn1CC(=O)N1CCC(c2nc(C3=NOC(CC(C)(C)C)C3)cs2)CC1 (racemic) [Compound 28]
- Percent Disease Control, Test A [1, 4]: 99%
- Percent Disease Control, Test B [2, 4]: 100%
- Percent Disease Control, Test C [3, 4]: 94%

Compound: Cc1cc(C(F)(F)F)nn1CC(=O)N1CCC(c2nc(C3=NO[C@@H](N4C(=O)c5ccccc5C4=O)C3)cs2)CC1 (racemic) [Compound 129]
- Percent Disease Control, Test A ([1]; * tested at 40 ppm): 99%
- Percent Disease Control, Test B ([2]; * tested at 40 ppm): 100%
- Percent Disease Control, Test C ([3]; * tested at 40 ppm): 99%

Compound: Cc1cc(C(F)(F)F)nn1CC(=O)N1CCC(c2nc(C3=NO[C@@H](c4c(Cl)cccc4Cl)C3)cs2)CC1 (racemic) [Compound 135, 1-[4-[4-[(5R)-5-(2,6-dichlorophenyl)-4,5-dihydro-3-isoxazolyl]-2-thiazolyl]-1-piperidinyl]-2-[5-methyl-3-(trifluoromethyl)-1H-pyrazol-1-yl]ethanone]
- pest or weed control at 40 ppm ([1]; * tested at 40 ppm): 100%
- pest or weed control at 40 ppm [2]: 100%
- pest or weed control at 40 ppm [3]: 99%

Compound: COc1cc(OC)c([C@H]2CC(c3csc(C4CCN(C(=O)Cn5nc(C(F)(F)F)cc5C)CC4)n3)=NO2)c(OC)c1 (racemic) [Compound 155, 1-[4-[4-[(5R)-4,5-dihydro-5-(2,4,6-trimethoxyphenyl)-3-isoxazolyl]-2-thiazolyl]-1-piperidinyl]-2-[5-methyl-3-(trifluoromethyl)-1H-pyrazol-1-yl]ethanone]
- pest or weed control at 40 ppm ([1]; * tested at 40 ppm): 100%
- pest or weed control at 40 ppm [2]: 100%
- pest or weed control at 40 ppm [3]: 99%

Compound: Cc1cc(C)n(CC(=O)N2CCC(c3nc(C4=NO[C@]5(CCCc6ccccc65)C4)cs3)CC2)n1 (racemic) [Compound 164, 1-[4-[4-[(1′R)-3′,4′-dihydrospiro[isoxazole-5(4H),1′(2′H)-naphthalen]-3-yl]-2-thiazolyl]-1-piperidinyl]-2-(3,5-dimethyl-1H-pyrazol-1-yl)ethanone]
- pest or weed control at 10 µg/mL ([1]; ** tested at l0 ppm): 99%
- pest or weed control at 10 µg/mL [2]: 100%
- pest or weed control at 10 µg/mL [3]: 99%

Compound: O=C(Cn1nc(C(F)(F)F)cc1C(F)(F)F)N1CCC(c2nc(C3=NO[C@]4(CCCc5ccccc54)C3)cs2)CC1 (racemic) [Compound 229, 2-[3,5-bis(trifluoromethyl)-1H-pyrazol-1-yl]-1-[4-[4-[(1′R)-3′,4′-dihydrospiro[isoxazole-5(4H), 1′(2′H)-naphthalen]-3-yl]-2-thiazolyl]-1-piperidinyl]ethanone]
- pest or weed control at 10 µg/mL ([1]; ** tested at l0 ppm): 100%
- pest or weed control at 10 µg/mL [2]: 100%
- pest or weed control at 10 µg/mL [3]: 100%

Compound: O=C(Cn1nc(C(F)(F)F)cc1Cl)N1CCC(c2nc(C3=NO[C@]4(CCCc5ccccc54)C3)cs2)CC1 (racemic) [Compound 230, 2-[5-chloro-3-(trifluoromethyl)-1H-pyrazol-1-yl]-1-[4-[4-[(1′R)-3′,4′-dihydrospiro[isoxazole-5(4H), 1′(2′H)-naphthalen]-3-yl]-2-thiazolyl]-1-piperidinyl]ethanone]
- pest or weed control at 10 µg/mL ([1]; ** tested at l0 ppm): 100%
- pest or weed control at 10 µg/mL [2]: 100%
- pest or weed control at 10 µg/mL [3]: 100%

Compound: O=C(Cn1nc(C(F)(F)F)cc1C(F)(F)F)N1CCC(c2nc(C3=NO[C@]4(CCc5ccccc54)C3)cs2)CC1 (racemic) [Compound 231, 2-[3,5-bis(trifluoromethyl)-1H-pyrazol-1-yl]-1-[4-[4-[(1R)-2,3-dihydrospiro[1H-indene-1,5′(4′1H)-isoxazol]-3′-yl]-2-thiazolyl]-1-piperidinyl]ethanone]
- Percent Disease Control, Test A ([1]; ** tested at l0 ppm): 100%
- Percent Disease Control, Test B ([2]; ** tested at l0 ppm): 100%
- Percent Disease Control, Test C ([3]; ** tested at l0 ppm): 100%

Compound: C[C@]1(c2ccccc2)CC(c2csc(C3CCN(C(=O)Cn4nc(C(F)(F)F)cc4Cl)CC3)n2)=NO1 (racemic) [Compound 261, 2-[5-chloro-3-(trifluoromethyl)-1H-pyrazol-1-yl]-1-[4-[4-[(5R)-4,5-dihydro-5-methyl-5-phenyl-3-isoxazolyl]-2-thiazolyl]-1-piperidinyl]ethanone]
- pest or weed control at 10 µg/mL ([1]; ** tested at l0 ppm): 100%
- pest or weed control at 10 µg/mL [2]: 100%
- pest or weed control at 10 µg/mL [3]: 93%

Compound: Cc1cc(C(F)(F)F)nn1CC(=O)N1CCC(c2nc(C3=NO[C@@](C#N)(c4ccccc4)C3)cs2)CC1 (racemic) [Compound 265, (5R)-4,5-dihydro-3-[2-[1-[2-[5-methyl-3-(trifluoromethyl)-1H-pyrazol-1-yl]acetyl]-4-piperidinyl]-4-thiazolyl]-5-phenyl-5-isoxazolecarbonitrile]
- pest or weed control at 10 µg/mL ([1]; ** tested at l0 ppm): 100%
- pest or weed control at 10 µg/mL [2]: 100%
- pest or weed control at 10 µg/mL [3]: 98%

Compound: Cc1cc(C(F)(F)F)nn1CC(=O)N1CCC(c2nc(C3=NOC(c4ccccc4)C3)cs2)CC1 (single isomer, unassigned) [Compound 4]
- Percent Disease Control, Test A ([1]; ** tested at l0 ppm): 100%
- Percent Disease Control, Test B ([2]; ** tested at l0 ppm): 100%
- Percent Disease Control, Test C ([3]; ** tested at l0 ppm): 99%

Compound: Cc1cc(C(F)(F)F)nn1CC(=O)N1CCC(c2nc(C3=NOC4(CCC(c5ccccc5)C4)C3)cs2)CC1 (single isomer, unassigned) [Compound 157]
- Percent Disease Control, Test A ([1]; * tested at 40 ppm): 100%
- Percent Disease Control, Test B ([2]; * tested at 40 ppm): 100%
- Percent Disease Control, Test C ([3]; * tested at 40 ppm): 94%

Compound: Cc1cccc(-c2csc(C3CCN(C(=O)Cn4nc(C(F)(F)F)cc4C)CC3)n2)c1 [Compound 149]
- Percent Disease Control, Test A [1, 4]: 99%
- Percent Disease Control, Test B [2, 4]: 97%

Compound: COc1ccc(-c2csc(C3CCN(C(=O)Cn4nc(C(F)(F)F)cc4C)CC3)n2)cc1 [Compound 150]
- Percent Disease Control, Test A [1, 4]: 99%
- Percent Disease Control, Test B [2, 4]: 100%

Compound: Cc1ccc(-c2csc(C3CCN(C(=O)Cn4nc(C(F)(F)F)cc4C)CC3)n2)cc1 [Compound 151]
- Percent Disease Control, Test A [1, 4]: 100%
- Percent Disease Control, Test B [2, 4]: 99%

Compound: COc1cccc(-c2csc(C3CCN(C(=O)Cn4nc(C(F)(F)F)cc4C)CC3)n2)c1 [Compound 152]
- Percent Disease Control, Test A [1, 4]: 91%
- Percent Disease Control, Test B [2, 4]: 89%

Compound: COc1ccccc1-c1csc(C2CCN(C(=O)Cn3nc(C(F)(F)F)cc3C)CC2)n1 [Compound 153]
- Percent Disease Control, Test A [1, 4]: 73%
- Percent Disease Control, Test B [2, 4]: 0%
